From patent US8758770B2 (Research Development Foundation, priority 2006, dated 2014)
Where no end group is shown, it is not given here.

What was measured:
Assay type in all cases: in vivo
[1] = tested on: EAE in C57BL/6 mice immunized with MOG peptide 35-55; assay: Oral ACTH treatment of EAE mice, clinical score; design: key to Clinical Score: 0 = no disease to 6 = paraplegia with severe weakness/ataxia
Procedure: EAE is a T cell mediated inflammatory autoimmune process of the CNS that resembles in some aspects the human demyelinating disease multiple sclerosis. It thus provides a useful animal model for the evaluation of potential therapies for MS. […] This protocol mimics clinical practice since patients are treated with ACTHAR® Gel after they experience a clinical exacerbation of their disease, albeit clinical treatment is via intramuscular injection.
Clinical severity is graded daily by a blinded observer as follows: 0=no disease; 1=minimal or mild hind limb weakness (associated with limp tail); 2=moderate hind limb weakness or mild ataxia (waddling gait and/or poor righting ability); 3=moderate to severe hind limb weakness; 4=severe hind limb weakness or moderate ataxia; 5=paraplegia with no more than moderate four limb weakness; 6=paraplegia with severe four limb weakness or severe ataxia. […]

[2] = tested on: EAE in C57BL/6 mice immunized with MOG peptide 35-55; assay: Spinal cord foci of inflammation after oral ACTH in EAE mice; settings: Ex 1-A, control mock placebo group 4.72±0.34
Procedure: Following administration, clinical outcome is measured in at least two ways: by comparing the difference between group active treatment scores and placebo group scores from day 26-33 post immunization, and comparing group mean scores directly (day 17-35 post-immunization). Following sacrifice, spinal cords are removed and evaluated independently for foci of inflammation by a blinded observer.

[3] = Toxicity of oral ACTH administered over an extended time period; settings: orally administered to mice over an extended time period

SYSMEHFRWGKPVGKKRRPVKVYPDGAEDQLAEAFPLEF [ACTH]
recovery from EAE attack compared to placebo, difference between group active treatment and placebo group scores ([1]; Ex 1-A, 10 or 1000 microgram oral dose, 10 microgram p<0.03, 1000 microgram p<0.05): significantly improved recovery
recovery compared to placebo, comparing group mean scores directly ([1]; Ex 1-A, oral doses of 10, 100, and 1000 microgram): significantly faster recovery
recovery from EAE attack compared to placebo, difference between group active treatment and group placebo scores ([1]; Ex 1-B, 10 IU p<0.0001, 100 IU p<0.0003, 1000 IU p<0.0007): significantly improved recovery
recovery from EAE attack compared to placebo, comparing group mean scores directly ([1]; Ex 1-B, oral 10 and 1000 IU, 10 IU p<0.00001, 100 IU p<0.00006, 1000 IU p<0.00003): significantly improved recovery
Clinical Score ([1]; Table 1, Ex 1-A, ACTH 10 microgram oral daily, day 28, control 2.88): 1.38
Clinical Score ([1]; Table 1, Ex 1-A, ACTH 10 microgram oral daily, day 32, control 3): 1.38
Clinical Score ([1]; Table 1, Ex 1-A, ACTH 10 microgram oral daily, day 33, control 3): 1.375
Clinical Score ([1]; Table 1, Ex 1-A, ACTH 10 microgram oral daily, day 35, control 3.13): 1.38
Clinical Score ([1]; Table 1, Ex 1-A, ACTH 100 microgram oral daily, day 22, control 2.63): 2.5
Clinical Score ([1]; Table 2, Ex 1-B, 1000 IU oral daily, day 40, control […]): 1.13
Clinical Score ([1]; Table 2, Ex 1-B, ACTH 10 IU oral daily, day 32, control […]): 1.38
Clinical Score ([1]; Table 2, Ex 1-B, ACTH 10 IU oral daily, day 33, control 2): 1
Clinical Score ([1]; Table 2, Ex 1-B, ACTH 10 IU oral daily, day 40, control […]): 1.25
Clinical Score ([1]; Table 2, Ex 1-B, ACTH 100 IU oral daily, day 32, control […]): 1.38
Clinical Score ([1]; Table 2, Ex 1-B, ACTH 100 IU oral daily, day 40, control […]): 1.38
mean group inflammatory score (inflammatory foci, spinal cord) ([2]; 10 microgram fed group, p<0.008): 3.05±0.3
mean group inflammatory score (inflammatory foci, spinal cord) ([2]; 1000 microgram fed group, p<0.00002): 2.27±0.23
toxicity [3]: no detectable toxicity
